Reference: patent US20100298141A1, “SUBSTITUTED PYRIDINE N-OXIDE HERBICIDES” (E. I. DU PONT DE NEMOURS AND COMPANY, priority 2007, published 2010)

Assays:
velvetleaf [1] = assay: Test C pre-/postemergence test; format: in vivo, Abutilon theophrasti
Outline: (§1)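 Test chemicals were formulated with surfactant in a non-phytotoxic solvent and sprayed both on freshly planted seeds (preemergence) and on 1- to 4-leaf plants of 2–18 cm (postemergence). Flooded-paddy pots received compound directly into 3 cm of standing water, maintained for the test.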

soybean = assay: Test C pre-/postemergence test; format: in vivo, Glycine max
Outline: as §1

downy brome = assay: Test C pre-/postemergence test; format: in vivo, Bromus tectorum
Outline: as §1

corn = assay: Test C pre-/postemergence test; format: in vivo, Zea mays
Outline: as §1

giant foxtail = assay: Test C pre-/postemergence test; format: in vivo, Setaria faberii
Outline: as §1

cocklebur = assay: Test C pre-/postemergence test; format: in vivo, Xanthium strumarium
Outline: as §1

blackgrass = assay: Test C pre-/postemergence test; format: in vivo, Alopecurus myosuroides
Outline: as §1

green foxtail = assay: Test C pre-/postemergence test; format: in vivo, Setaria viridis
Outline: as §1

johnsongrass = assay: Test C pre-/postemergence test; format: in vivo, Sorghum halepense
Outline: as §1

Italian ryegrass = assay: Test C pre-/postemergence test; format: in vivo, Lolium multiflorum
Outline: as §1

woolly cupgrass = assay: Test C pre-/postemergence test; format: in vivo, Eriochloa villosa
Outline: as §1

barnyardgrass = assay: Test C flooded paddy test; format: in vivo, Echinochloa crus-galli; conditions: Flood
Outline: (§2)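 Compound was added to standing water 3 cm above soil, flood maintained, and plants held in a greenhouse before visual scoring against controls at 13 to 15 days.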

velvetleaf [2] = assay: Test A pre-/postemergence greenhouse test; format: in vivo, Abutilon theophrasti; conditions: for Plant response rating, Velvetleaf: 0 to 100 scale where 0 is no effect and 100 is complete control; for Velvetleaf plant response rating: 0 to 100 scale
Outline: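 Visual injury ratings against untreated controls, taken roughly ten days after treatment in greenhouse. Plants were sprayed postemergence at one- to two-leaf stage (2–10 cm tall); at the same time, seeded loam/sand soil received a directed preemergence spray. Formulation: non-phytotoxic solvent mixture with surfactant.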

morningglory = assay: Test C pre-/postemergence test; format: in vivo, Ipomoea coccinea
Outline: as §1

duck salad = assay: Test C flooded paddy test; format: in vivo, Heteranthera limosa; conditions: Flood
Outline: as §2

wild oat = assay: Test C pre-/postemergence test; format: in vivo, Avena fatua
Outline: as §1

[3] = 62 g ai/ha, Preemergence, scale 0 to 100
[4] = 125 g ai/ha, preemergence, scale 0 (no effect) to 100 (complete control)
[5] = Postemergence, 125 g ai/ha, scale 0 to 100, 0 no effect, 100 complete control
[6] = Postemergence, 250 g ai/ha, scale 0 to 100, 0 no effect, 100 complete control
[7] = Preemergence, 31 g ai/ha, scale 0 to 100 (0 no effect, 100 complete control)
[8] = preemergence, 250 g ai/ha, scale 0 (no effect) to 100 (complete control)
[9] = 62 g ai/ha, scale 0 to 100 (0 no effect, 100 complete control)
[10] = 250 g ai/ha, scale 0 to 100, 0 no effect, 100 complete control, 13 to 15 days
[11] = Postemergence, 500 g ai/ha, 0 is no effect, 100 is complete control
[12] = Preemergence, 125 g ai/ha, 0 no effect, 100 complete control

CC(Oc1c(CS(=O)(=O)c2cccc[n+]2[O-])c(C(F)(F)F)nn1C)C(F)(F)F (stereo not drawn) [Compound 82]
90: Plant response rating, Blackgrass (blackgrass; [5]) | Plant response rating, Ryegrass, Italian (Italian ryegrass; [6]) | Cupgrass, Woolly plant response rating (woolly cupgrass; [3]) | Cupgrass, Woolly plant response rating (woolly cupgrass; [4])
75: Plant response rating, Ryegrass, Italian (Italian ryegrass; [7])
80: Velvetleaf plant response rating (velvetleaf [1]; [3]) | Velvetleaf plant response rating (velvetleaf [1]; [4]) | Bromegrass, Downy plant response rating (downy brome; [4]) | Corn plant response rating (corn; [8]) | Plant response rating, Foxtail, Green (green foxtail; [6]) | Johnsongrass plant response rating (johnsongrass; [3]) | Johnsongrass plant response rating (johnsongrass; [4]) | Ryegrass, Italian plant response rating (Italian ryegrass; [4]) | Plant response rating, Cupgrass, Woolly (woolly cupgrass; [7]) | Plant response rating, Barnyardgrass (barnyardgrass; [10]) | Velvetleaf plant response rating (velvetleaf [2]; [11]) | Plant response rating, Ducksalad (duck salad; [10]) | Oat, Wild plant response rating (wild oat; [4]) | Oat, Wild plant response rating (wild oat; [8])
70: Soybean plant response rating (soybean; [8]) | Corn plant response rating (corn; [4]) | Plant response rating, Foxtail, Giant (giant foxtail; [7]) | Morningglory plant response rating (morningglory; [3])
100: Velvetleaf plant response rating (velvetleaf [1]; [8]) | Bromegrass, Downy plant response rating (downy brome; [8]) | Foxtail, Giant plant response rating (giant foxtail; [4]) | Foxtail, Giant plant response rating (giant foxtail; [8]) | Blackgrass plant response rating (blackgrass; [3]) | Blackgrass plant response rating (blackgrass; [4]) | Plant response rating, Blackgrass (blackgrass; [7]) | Blackgrass plant response rating (blackgrass; [8]) | Foxtail, Green plant response rating (green foxtail; [8]) | Johnsongrass plant response rating (johnsongrass; [8]) | Ryegrass, Italian plant response rating (Italian ryegrass; [8]) | Plant response rating, Velvetleaf (velvetleaf [2]; Preemergence, 500 g ai/ha) | Morningglory plant response rating (morningglory; [8])
95: Plant response rating, Blackgrass (blackgrass; [6]) | Foxtail, Green plant response rating (green foxtail; [3]) | Plant response rating, Foxtail, Green (green foxtail; [7])
0: Plant response rating (0 to 100), Velvetleaf (velvetleaf [1]; Postemergence, 31 g ai/ha) | Plant response rating (0 to 100), Velvetleaf (velvetleaf [1]; Postemergence, 62 g ai/ha) | Plant response rating, Velvetleaf (velvetleaf [1]; [5]) | Plant response rating, Velvetleaf (velvetleaf [1]; [7]) | Plant response rating (0 to 100), Soybean (soybean; Postemergence, 31 g ai/ha) | Plant response rating (0 to 100), Soybean (soybean; Postemergence, 62 g ai/ha) | Plant response rating, Soybean (soybean; [5]) | Plant response rating, Soybean (soybean; [7]) | Plant response rating (0 to 100), Bromegrass, Downy (downy brome; Postemergence, 31 g ai/ha) | Plant response rating (0 to 100), Bromegrass, Downy (downy brome; Postemergence, 62 g ai/ha) | Plant response rating, Bromegrass, Downy (downy brome; [5]) | Plant response rating, Bromegrass, Downy (downy brome; [6]) | Plant response rating (0 to 100), Corn (corn; Postemergence, 31 g ai/ha) | Plant response rating (0 to 100), Corn (corn; Postemergence, 62 g ai/ha) | Plant response rating, Corn (corn; [5]) | Plant response rating, Corn (corn; [6]) | Plant response rating (0 to 100), Foxtail, Giant (giant foxtail; Postemergence, 31 g ai/ha) | Plant response rating (0 to 100), Foxtail, Giant (giant foxtail; Postemergence, 62 g ai/ha) | Cocklebur plant response rating (cocklebur; [3]) | Cocklebur plant response rating (cocklebur; [4]) | Plant response rating (0 to 100), Cocklebur (cocklebur; Postemergence, 31 g ai/ha) | Plant response rating (0 to 100), Cocklebur (cocklebur; Postemergence, 62 g ai/ha) | Plant response rating, Cocklebur (cocklebur; [5]) | Plant response rating, Cocklebur (cocklebur; [6]) | Plant response rating, Cocklebur (cocklebur; [7]) | Cocklebur plant response rating (cocklebur; [8]) | Plant response rating (0 to 100), Blackgrass (blackgrass; Postemergence, 31 g ai/ha) | Plant response rating (0 to 100), Foxtail, Green (green foxtail; Postemergence, 31 g ai/ha) | Plant response rating (0 to 100), Johnsongrass (johnsongrass; Postemergence, 31 g ai/ha) | Plant response rating (0 to 100), Johnsongrass (johnsongrass; Postemergence, 62 g ai/ha) | Plant response rating (0 to 100), Ryegrass, Italian (Italian ryegrass; Postemergence, 31 g ai/ha) | Plant response rating (0 to 100), Ryegrass, Italian (Italian ryegrass; Postemergence, 62 g ai/ha) | Plant response rating (0 to 100), Cupgrass, Woolly (woolly cupgrass; Postemergence, 31 g ai/ha) | Plant response rating (0 to 100), Cupgrass, Woolly (woolly cupgrass; Postemergence, 62 g ai/ha) | Plant response rating, Barnyardgrass (barnyardgrass; [9]) | Plant response rating (0 to 100), Morningglory (morningglory; Postemergence, 31 g ai/ha) | Plant response rating (0 to 100), Morningglory (morningglory; Postemergence, 62 g ai/ha) | Plant response rating, Morningglory (morningglory; [5]) | Plant response rating, Morningglory (morningglory; [6]) | Plant response rating, Morningglory (morningglory; [7]) | Plant response rating (0 to 100), Oat, Wild (wild oat; Postemergence, 31 g ai/ha) | Plant response rating (0 to 100), Oat, Wild (wild oat; Postemergence, 62 g ai/ha) | Plant response rating, Oat, Wild (wild oat; [5])
35: Plant response rating, Oat, Wild (wild oat; [7])
20: Plant response rating, Velvetleaf (velvetleaf [1]; [6]) | Plant response rating, Soybean (soybean; [6]) | Plant response rating, Cupgrass, Woolly (woolly cupgrass; [5])
40: Corn plant response rating (corn; [3]) | Plant response rating, Corn (corn; [7]) | Plant response rating, Foxtail, Giant (giant foxtail; [5]) | Plant response rating, Foxtail, Giant (giant foxtail; [6]) | Plant response rating (0 to 100), Foxtail, Green (green foxtail; Postemergence, 62 g ai/ha) | Plant response rating, Johnsongrass (johnsongrass; [6]) | Plant response rating, Johnsongrass (johnsongrass; [7]) | Plant response rating, Oat, Wild (wild oat; [6])
10: Plant response rating, Johnsongrass (johnsongrass; [5]) | Plant response rating, Velvetleaf (velvetleaf [2]; Postemergence, 125 g ai/ha)
85: Foxtail, Giant plant response rating (giant foxtail; [3]) | Plant response rating, Ryegrass, Italian (Italian ryegrass; [5])
30: Soybean plant response rating (soybean; [3])
50: Plant response rating, Bromegrass, Downy (downy brome; [7]) | Plant response rating, Cupgrass, Woolly (woolly cupgrass; [6])
98: Foxtail, Green plant response rating (green foxtail; [4]) | Cupgrass, Woolly plant response rating (woolly cupgrass; [8]) | Morningglory plant response rating (morningglory; [4])
60: Bromegrass, Downy plant response rating (downy brome; [3]) | Plant response rating (0 to 100), Blackgrass (blackgrass; Postemergence, 62 g ai/ha) | Plant response rating, Foxtail, Green (green foxtail; [5]) | Velvetleaf plant response rating (velvetleaf [2]; [12]) | Plant response rating, Ducksalad (duck salad; [9]) | Oat, Wild plant response rating (wild oat; [3])

Cn1nc(C(F)(F)F)c(CS(=O)(=O)c2ccc(Cl)c[n+]2[O-])c1OCC(F)(F)F [Compound 73]
85: Cupgrass, Woolly plant response rating (woolly cupgrass; [4]) | Cupgrass, Woolly plant response rating (woolly cupgrass; [8]) | Plant response rating, Ducksalad (duck salad; [10])
30: Velvetleaf plant response rating (velvetleaf [1]; [3]) | Corn plant response rating (corn; [8])
70: Velvetleaf plant response rating (velvetleaf [1]; [8]) | Soybean plant response rating (soybean; [8]) | Foxtail, Green plant response rating (green foxtail; [3]) | Plant response rating, Foxtail, Green (green foxtail; [7]) | Plant response rating, Johnsongrass (johnsongrass; [7]) | Plant response rating, Ducksalad (duck salad; [9])
50: Velvetleaf plant response rating (velvetleaf [2]; [11])
90: Oat, Wild plant response rating (wild oat; [8])
0: Plant response rating, Velvetleaf (velvetleaf [1]; [7]) | Soybean plant response rating (soybean; [3]) | Plant response rating, Soybean (soybean; [7]) | Plant response rating, Bromegrass, Downy (downy brome; [7]) | Corn plant response rating (corn; [3]) | Corn plant response rating (corn; [4]) | Plant response rating, Corn (corn; [7]) | Cocklebur plant response rating (cocklebur; [3]) | Cocklebur plant response rating (cocklebur; [4]) | Plant response rating, Cocklebur (cocklebur; [7]) | Cocklebur plant response rating (cocklebur; [8]) | Plant response rating, Ryegrass, Italian (Italian ryegrass; [7]) | Plant response rating, Barnyardgrass (barnyardgrass; [9]) | Plant response rating, Velvetleaf (velvetleaf [2]; Postemergence, 125 g ai/ha) | Velvetleaf plant response rating (velvetleaf [2]; [12]) | Morningglory plant response rating (morningglory; [3]) | Morningglory plant response rating (morningglory; [4]) | Plant response rating, Morningglory (morningglory; [7]) | Morningglory plant response rating (morningglory; [8])
60: Bromegrass, Downy plant response rating (downy brome; [3]) | Bromegrass, Downy plant response rating (downy brome; [4]) | Ryegrass, Italian plant response rating (Italian ryegrass; [4]) | Plant response rating, Cupgrass, Woolly (woolly cupgrass; [7]) | Plant response rating, Velvetleaf (velvetleaf [2]; Preemergence, 500 g ai/ha) | Oat, Wild plant response rating (wild oat; [4])
40: Velvetleaf plant response rating (velvetleaf [1]; [4]) | Oat, Wild plant response rating (wild oat; [3]) | Plant response rating, Oat, Wild (wild oat; [7])
65: Plant response rating, Barnyardgrass (barnyardgrass; [10])
80: Foxtail, Giant plant response rating (giant foxtail; [4]) | Foxtail, Giant plant response rating (giant foxtail; [8]) | Cupgrass, Woolly plant response rating (woolly cupgrass; [3])
10: Foxtail, Giant plant response rating (giant foxtail; [3]) | Plant response rating, Foxtail, Giant (giant foxtail; [7]) | Ryegrass, Italian plant response rating (Italian ryegrass; [3])
100: Bromegrass, Downy plant response rating (downy brome; [8]) | Blackgrass plant response rating (blackgrass; [4]) | Blackgrass plant response rating (blackgrass; [8]) | Foxtail, Green plant response rating (green foxtail; [4]) | Johnsongrass plant response rating (johnsongrass; [3]) | Johnsongrass plant response rating (johnsongrass; [4]) | Johnsongrass plant response rating (johnsongrass; [8])
98: Blackgrass plant response rating (blackgrass; [3]) | Plant response rating, Blackgrass (blackgrass; [7]) | Ryegrass, Italian plant response rating (Italian ryegrass; [8])
